Tests used:
Kv1.5 = target: T1, Kv1.5 (Homo sapiens, UniProt P22460); assay: Kv1.5 Patch Clamp EP; assay type: cell-based; settings: whole cell patch clamp; for IC50: HEK or LTK- cells, at least four concentrations, n=3
T1 construct: expressed in transfected cells; host or cells: HEK or LTK- cells
Procedure: The external solution is standard Tyrodes solution. […] Inhibition was measured at the end of the 1 second pulses and expressed relative to controls. Initial Kv1.5 inhibition is estimated by single point determinations done at 1 μM.

L-type calcium channels = assay: FLIPR L-Type Calcium Channel Assay; assay type: cell-based, murine; settings: HL-1 cells expressing endogenous L-type calcium channels; calcium influx after 20 mM KCl; read-out: L-type Ca^2+ IC50
Procedure: 50 μL per well test compounds are added to the plates and further incubated for 15 min. in a 5% CO2 37° C. incubator. All final solutions contain the anion exchange inhibitor, probenecid (2.5 mM). The 96-well plates are then placed in the center position of the FLIPR 1 (Fluorometric Imaging Plate Reader, Molecular Devices Corporation). Cell monolayers in each well are simultaneously illuminated at 488 nm with an Argon ion laser, and fluorescence emission is monitored using a 510-570 nm bandpass filter and a cooled CCD camera. To depolarize the plasma membrane and activate L-type calcium channels, 50 μL per well of 20 mM KCl (final concentration) are dispensed simultaneously to all 96 wells using the FLIPR's automatic 96-well pipettor. Fluorescence measurements are captured for 5 min. following KCl addition. Calcium influx, expressed as % control, is calculated for each concentration of test compound and concentration-response curves and IC50 values are generated using GraphPad Prism 4.0.

HERG = HERG (Homo sapiens, UniProt Q12809); assay: HERG Patch Clamp EP; settings: for inhibition at 10 µM: human, HEK cells stably overexpressing HERG
HERG, sequence (Q12809 whole entry): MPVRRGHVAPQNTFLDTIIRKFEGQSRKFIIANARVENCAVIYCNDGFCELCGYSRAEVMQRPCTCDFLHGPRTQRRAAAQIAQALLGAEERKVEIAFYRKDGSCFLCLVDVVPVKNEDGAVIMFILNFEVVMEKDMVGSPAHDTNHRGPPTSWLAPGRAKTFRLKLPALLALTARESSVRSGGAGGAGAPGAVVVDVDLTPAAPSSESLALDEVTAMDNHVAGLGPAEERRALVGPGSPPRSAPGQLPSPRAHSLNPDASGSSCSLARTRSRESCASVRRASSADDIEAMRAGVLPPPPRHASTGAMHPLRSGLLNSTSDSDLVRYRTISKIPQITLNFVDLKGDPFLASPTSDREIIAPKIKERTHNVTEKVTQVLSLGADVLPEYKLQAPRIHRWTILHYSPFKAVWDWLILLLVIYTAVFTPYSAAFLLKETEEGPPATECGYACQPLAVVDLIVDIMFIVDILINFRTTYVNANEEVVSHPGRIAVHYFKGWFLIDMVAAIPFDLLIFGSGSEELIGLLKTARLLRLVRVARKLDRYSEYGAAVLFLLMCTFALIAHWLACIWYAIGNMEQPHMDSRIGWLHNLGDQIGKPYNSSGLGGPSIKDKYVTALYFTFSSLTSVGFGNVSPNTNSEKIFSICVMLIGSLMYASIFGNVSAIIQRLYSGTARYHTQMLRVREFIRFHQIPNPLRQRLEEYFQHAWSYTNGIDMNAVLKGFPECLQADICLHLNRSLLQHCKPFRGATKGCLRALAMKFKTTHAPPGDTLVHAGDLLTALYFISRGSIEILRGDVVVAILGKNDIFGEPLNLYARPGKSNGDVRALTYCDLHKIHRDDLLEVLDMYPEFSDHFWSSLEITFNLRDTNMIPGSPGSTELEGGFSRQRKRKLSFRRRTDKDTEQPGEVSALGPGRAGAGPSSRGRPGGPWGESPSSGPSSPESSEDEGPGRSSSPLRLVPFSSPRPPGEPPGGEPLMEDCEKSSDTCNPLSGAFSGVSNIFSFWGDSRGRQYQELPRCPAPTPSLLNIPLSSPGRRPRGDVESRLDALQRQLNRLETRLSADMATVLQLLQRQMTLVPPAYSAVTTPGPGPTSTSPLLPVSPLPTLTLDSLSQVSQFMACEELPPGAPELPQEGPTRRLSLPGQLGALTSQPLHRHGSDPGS
Procedure: HERG currents are recorded by the whole cell mode of patch clamp electrophysiology as described by Hamill et al.^3 HERG is stably over expressed in HEK cells. Microelectrodes are pulled from borosilicate glass (TW150) and heat polished (tip resistance, 1.5 to 3 megaohms). The external solution is standard Tyrodes solution. The internal (microelectrode) solution contained: 110 mM KCl, 5 mM K2ATP, 5 mM K4BAPTA, 1 mM MgCl2 and 10 mM HEPES, adjusted to pH 7.2 with KOH. […] Compounds are prepared as 10-20 mM DMSO stocks and diluted to appropriate test concentrations. […] Inhibition of HERG is measured at the peak of the tail currents and expressed relative to controls. Initial HERG activity is estimated by single point determinations run at 10 μM. Concentration response curves are generated for appropriate compounds utilizing at least four concentrations and an n=3. Curve fitting and IC50 estimating are done using Graphpad software (Ver. 4). • 1.

[1] = 1.0 μM, single point, Kv1.5 stably over expressed in HEK or LTK- cells

T1 sequence (P22460 whole entry): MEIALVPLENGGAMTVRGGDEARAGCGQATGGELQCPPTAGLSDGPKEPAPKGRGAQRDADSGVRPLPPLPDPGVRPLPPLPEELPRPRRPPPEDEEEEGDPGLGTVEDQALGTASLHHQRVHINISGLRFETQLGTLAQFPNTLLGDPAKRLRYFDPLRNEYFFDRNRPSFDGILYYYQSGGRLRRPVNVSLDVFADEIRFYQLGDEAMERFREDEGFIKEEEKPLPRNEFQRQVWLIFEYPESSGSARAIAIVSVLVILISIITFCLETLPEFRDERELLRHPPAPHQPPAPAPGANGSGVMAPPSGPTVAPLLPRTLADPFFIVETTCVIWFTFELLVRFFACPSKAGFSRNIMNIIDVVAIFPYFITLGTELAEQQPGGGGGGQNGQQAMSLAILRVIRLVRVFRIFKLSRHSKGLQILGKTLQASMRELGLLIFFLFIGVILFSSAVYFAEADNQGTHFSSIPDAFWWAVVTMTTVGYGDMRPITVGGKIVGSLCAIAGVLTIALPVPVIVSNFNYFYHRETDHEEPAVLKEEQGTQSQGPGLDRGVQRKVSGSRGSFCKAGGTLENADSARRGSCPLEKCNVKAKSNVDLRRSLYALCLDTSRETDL

SMILES | inhibition at 1 µM (Kv1.5; [1]) [%] | IC50 (L-type calcium channels) [µM] | IC50 (Kv1.5) [µM] | Kv1.5% inhibition @ 1.0 μM (Kv1.5; [1]) [%] | inhibition at 10 µM (HERG) [%] | IC50 (HERG) [µM] | HERG % Inhib. @ 10 μM (HERG; 10 μM, single point, whole cell patch clamp, HERG stably over expressed in HEK cells, peak tail current) [%]
COc1ccc(CCN2C(=O)N(NS(C)(=O)=O)CC2c2ccc(OC)cc2)cc1 (stereo not shown) [Compound 23, 1-(Methylsulfonylamino)-3-[2-(4-methoxyphenyl)ethyl]-4-(4-methoxyphenyl)-2-imidazolidinone] | 66 | 30 | 0.703 | – | 21 | 23.6 | –
COc1ccc(CCN2C(=O)N(NS(C)(=O)=O)CC2c2ccc(C(C)(C)C)cc2)cc1 (stereo not shown) [Compound 24, 1-(Methylsulfonylamino)-3-[(4-methoxyphenyl)ethyl]-4-[4-(tert-butyl)phenyl]-imidazolidinone] | 82 | 10 | 0.514 | – | 74 | 6.4 | –
CCN(CC)c1ccc(C2CN(NS(C)(=O)=O)C(=O)N2CCc2ccc(OC)cc2)cc1 (stereo not shown) [Compound 25, 1-(Methylsulfonylamino)-3-[2-(4-methoxyphenyl)ethyl]-4-[(4-diethylamino)-phenyl]-2-imidazolidinone] | 84 | 28 | – | – | 31 | – | –
COc1ccc(CCN2C(=O)N(NS(C)(=O)=O)CC2c2ccc(OC(F)F)cc2)cc1 (stereo not shown) [Compound 26, 1-[(Methylsulfonyl)amino]-3-[2-(4-methoxyphenyl)ethyl]-4-(4-difluoro-methoxyphenyl)-2-imidazolidinone] | 66 | 17.5 | 0.716 | – | 76 | 4.1 | –
COc1ccc(CCN2C(=O)N(NS(C)(=O)=O)CC2c2ccc(OC(F)(F)F)cc2)cc1 (stereo not shown) [Compound 27, 1-[(Methylsulfonyl)amino]-3-[2-(4-methoxyphenyl)ethyl]-4-(4-trifluoro-methoxyphenyl)-2-imidazolidinone] | – | 19 | – | 56 | – | – | 63
COc1ccc(CCN2C(=O)N(NS(C)(=O)=O)CC2c2ccc(C3CC3)cc2)cc1 (stereo not shown) [Compound 28, 1-[(Methylsulfonyl)amino]-3-[(4-methoxyphenyl)ethyl]-4-(4-cyclopropylphenyl)-2-imidazolidinone] | 89 | 16 | 0.184 | – | 30 | 10.3 | –
COc1ccc(CCN2C(=O)N(NS(=O)(=O)C3CC3)CC2c2ccc(OC)cc2)cc1 (stereo not shown) [Compound 29, 1-(Cyclopropylsulfonylamino)-3-[(4-methoxyphenyl)ethyl]-4-(4-methoxyphenyl)-2-imidazolidinone] | 85 | 34 | – | – | 31 | – | –
COc1ccc(CCN2C(=O)N(NS(=O)(=O)CF)CC2c2ccc(C3CC3)cc2)cc1 (stereo not shown) [Compound 34, 1-(Fluoromethylsulfonylamino)-3-[2-(4-methoxyphenyl)ethyl]-4-(4-cyclopropyl-phenyl)-2-imidazolidinone] | 98 | 18 | – | – | 38 | – | –
COc1ccc(CCN2C(=O)N(NS(=O)(=O)CF)CC2c2ccc(C(C)(C)C)cc2)cc1 (stereo not shown) [Compound 36, 1-(Fluoromethylsulfonylamino)-3-[2-(4-methoxyphenyl)ethyl]-4-(4-tert-butyl-phenyl)-2-imidazolidinone] | 85 | 14 | – | – | 50 | – | –
COc1ccc(CCN2C(=O)N(NS(=O)(=O)CF)CC2c2ccc3c(c2)OCCO3)cc1 (stereo not shown) [Compound 37, 1-(Fluoromethylsulfonylamino)-3-[2-(4-methoxyphenyl)ethyl]-4-[(2,3dihydro-benzo[b][1,4]dioxin-6-yl)]-2-imidazolidinone] | 87 | 30 | – | – | 6 | – | –
COc1ccc(CCN2C(=O)N(NS(=O)(=O)CC#N)CC2c2ccc3c(c2)OCCO3)cc1 (stereo not shown) [Compound 40, 1-(Cyanomethylsulfonylamino)-3-[2-(4-methoxyphenyl)ethyl]-4-[(2,3-dihydro-benzo[b][1,4]dioxin-6-yl)]-2-imidazolidinone] | 70 | 30 | – | – | 1 | – | –
COc1ccc(CCCN2C(=O)N(NS(C)(=O)=O)CC2c2ccc(C3CC3)cc2)cc1 (stereo not shown) [Compound 48, 1-(Methylsulfonylamino)-3-[3-(4-methoxyphenyl)propyl]-4-[(4-cyclopropyl)-phenyl]-2-imidazolidinone] | 96 | 9 | 0.231 | – | 70 | 3.6 | –
COc1ccc(CCCN2C(=O)N(NS(C)(=O)=O)CC2c2ccc(OC)cc2)cc1 (stereo not shown) [Compound 49, 1-(Methylsulfonylamino)-3-[3-(4-methoxyphenyl)propyl]-4-[(4-methoxy)-phenyl]-2-imidazolidinone] | 76 | 23 | 0.466 | – | 25 | 11.4 | –

Further compounds by falling IC50 (L-type calcium channels), results first:

inhibition at 1 µM (Kv1.5; [1]) [%] | IC50 (L-type calcium channels) [µM] | IC50 (Kv1.5) [µM] | Kv1.5% inhibition @ 1.0 μM (Kv1.5; [1]) [%] | SMILES | inhibition at 10 µM (HERG) [%] | IC50 (HERG) [µM] | HERG % Inhib. @ 10 μM (HERG; 10 μM, single point, whole cell patch clamp, HERG stably over expressed in HEK cells, peak tail current) [%]
85 | 35 | – | – | C=CS(=O)(=O)NN1CC(c2ccc3c(c2)OCCO3)N(CCc2ccc(OC)cc2)C1=O (stereo not shown) [Compound 33, 1-(Vinylsulfonylamino)-3-[2-(4-methoxyphenyl)ethyl]-4-[(2,3-dihydrobenzo-[1,4]dioxin-6-yl)]-2-imidazolidinone] | 20 | – | –
73 | 30 | – | – | COc1ccc(CCN2C(=O)N(NS(C)(=O)=O)CC2c2ccc(C)cc2)cc1 (stereo not shown) [Compound 20, 1-(Methylsulfonylamino)-3-[(4-methoxyphenyl)ethyl]-4-(4-methylphenyl)-2-imidazolidinone] | 15 | – | –
71 | 30 | – | – | COc1ccc(CCN2C(=O)N(NS(=O)(=O)CF)CC2c2ccc(OC)cc2)cc1 (stereo not shown) [Compound 35, 1-(Fluoromethylsulfonylamino)-3-[2-(4-methoxyphenyl)ethyl]-4-(4-methoxy-phenyl)-2-imidazolidinone] | 14 | – | –
73 | 26 | – | – | CC(C)(C)c1ccc(C2CN(NS(C)(=O)=O)C(=O)N2CCCc2ccccc2)cc1 (stereo not shown) [Compound 47, 1-(Methylsulfonylamino)-3-(3-phenylpropyl)-4-[4-(tert-butyl)phenyl]-2-imidazolidinone] | 65 | – | –
60 | 25 | – | – | COc1ccc(CCCN2C(=O)N(NS(N)(=O)=O)CC2c2ccc(OC)cc2)cc1 (stereo not shown) [Compound 44, 1-(Sulfamoylamino)-3-[3-(4-methoxyphenyl)propyl]-4-[(4-methoxy)phenyl]-2-imidazolidinone] | 22 | – | –
87 | 21 | – | – | COc1ccc(CCN2C(=O)N(NS(=O)(=O)CC(=O)NC3CC3)CC2c2ccc(C3CC3)cc2)cc1 (stereo not shown) [Compound 51, 1-[[2-(Cyclopropylamino)-2-oxoethyl]sulfonylamino]-3-[2-(4-methoxyphenyl)ethyl]-4-(4-cyclopropylphenyl)-2-imidazolidinone] | 20 | – | –
91 | 20 | 0.418 | – | COc1ccc(CCN2C(=O)N(NS(=O)(=O)Cc3cccnc3)CC2c2ccc(OC(F)F)cc2)cc1 (stereo not shown) [Compound 42, 1-[(N-3-Pyridinylmethylsulfonyl)amino]-3-[2-(4-methoxyphenyl)ethyl]-4-(4-difluoromethoxyphenyl)-2-imidazolidinone] | 90 | – | –
83 | 16 | – | – | CS(=O)(=O)NN1CC(c2ccc(C3CC3)cc2)N(CCCc2ccccc2)C1=O (stereo not shown) [Compound 45, 1-(Methylsulfonylamino)-3-(3-phenylpropyl)-4-(4-cyclopropylphenyl)-2-imidazolidinone] | 55 | – | –
80 | 16 | – | – | COc1ccc(CCN2C(=O)N(NS(=O)(=O)CC(N)=O)CC2c2ccc(C3CC3)cc2)cc1 (stereo not shown) [Compound 52, 1-[(2-Amino-2-oxoethyl)sulfonylamino]-3-[2-(4-methoxyphenyl)ethyl]-4-(4-cyclopropylphenyl)-2-imidazolidinone] | 29 | – | –
85 | 5.6 | – | – | COc1ccc(CCN2C(=O)N(NS(=O)(=O)CC(F)(F)F)CC2c2ccc(C(C)(C)C)cc2)cc1 (stereo not shown) [Compound 38, 1-(2,2,2-Trifluoroethanesulfonylamino)-4-[4-(tert-butyl)phenyl]-3-[2-(4-methoxyphenyl)ethyl]-2-imidazolidinone] | 56 | – | –
93 | 4.3 | – | – | COc1ccc(CCN2C(=O)N(NS(=O)(=O)Cc3ccccc3)CC2c2ccc(C)c(C)c2)cc1 (stereo not shown) [Compound 43, 1-[(Phenylmethyl)sulfonylamino]-3-[2-(4-methoxyphenyl)ethyl]-4-(3,4-dimethyl-phenyl)-2-imidazolidinone] | 2 | – | –
88 | 3.3 | – | – | CCCS(=O)(=O)NN1CC(c2ccc(C3CC3)cc2)N(CCc2ccc(OC)cc2)C1=O (stereo not shown) [Compound 30, 1-(Propylsulfonylamino)-3-[(4-methoxyphenyl)ethyl]-4-(4-cyclopropylphenyl)-2-imidazolidinone] | 62 | – | –

Reference: patent US7504517B2, “Kv1.5 potassium channel inhibitors” (Wyeth, priority 2006, dated 2009)
